{
  "source": "patent US20240269139A1",
  "about": "“COMPOUNDS FOR TARGETED PROTEIN DEGRADATION OF KINASES” (DANA-FARBER CANCER INSTITUTE, INC., priority 2020, published 2024)",
  "type_in_all_cases": "cell-based",
  "key": {"[1]": {"molecular_target": "protein kinases (human kinome) (Homo sapiens, UniProt P16591)", "sequence (P16591 whole entry)": "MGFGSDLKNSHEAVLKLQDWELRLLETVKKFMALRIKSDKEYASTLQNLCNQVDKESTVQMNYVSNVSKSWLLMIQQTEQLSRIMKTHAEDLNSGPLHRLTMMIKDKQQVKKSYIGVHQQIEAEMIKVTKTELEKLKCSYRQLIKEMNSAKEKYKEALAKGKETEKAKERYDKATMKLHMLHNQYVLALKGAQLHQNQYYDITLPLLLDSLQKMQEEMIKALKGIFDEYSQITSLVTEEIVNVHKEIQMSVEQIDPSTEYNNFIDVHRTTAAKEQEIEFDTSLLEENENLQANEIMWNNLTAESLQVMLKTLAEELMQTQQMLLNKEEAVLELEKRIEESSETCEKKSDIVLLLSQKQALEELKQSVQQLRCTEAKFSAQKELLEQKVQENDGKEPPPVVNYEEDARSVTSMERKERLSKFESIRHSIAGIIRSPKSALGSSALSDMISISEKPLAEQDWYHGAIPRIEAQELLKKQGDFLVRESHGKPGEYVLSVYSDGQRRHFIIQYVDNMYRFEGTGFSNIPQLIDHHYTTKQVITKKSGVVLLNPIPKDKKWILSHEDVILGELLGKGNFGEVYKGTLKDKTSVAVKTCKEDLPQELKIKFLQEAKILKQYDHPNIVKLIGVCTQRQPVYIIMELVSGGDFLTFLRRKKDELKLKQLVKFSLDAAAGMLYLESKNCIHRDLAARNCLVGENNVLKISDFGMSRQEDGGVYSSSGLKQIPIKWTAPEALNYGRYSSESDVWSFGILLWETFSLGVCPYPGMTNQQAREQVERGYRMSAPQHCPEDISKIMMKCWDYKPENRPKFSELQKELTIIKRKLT", "details": "for logFC of FER (P16591-1): down; for logFC of FER: FER P16591-1"}, "[2]": {"molecular_target": "T1, protein kinases (human kinome) (Homo sapiens, UniProt O75385)", "T1 sequence (O75385 1-1050)": "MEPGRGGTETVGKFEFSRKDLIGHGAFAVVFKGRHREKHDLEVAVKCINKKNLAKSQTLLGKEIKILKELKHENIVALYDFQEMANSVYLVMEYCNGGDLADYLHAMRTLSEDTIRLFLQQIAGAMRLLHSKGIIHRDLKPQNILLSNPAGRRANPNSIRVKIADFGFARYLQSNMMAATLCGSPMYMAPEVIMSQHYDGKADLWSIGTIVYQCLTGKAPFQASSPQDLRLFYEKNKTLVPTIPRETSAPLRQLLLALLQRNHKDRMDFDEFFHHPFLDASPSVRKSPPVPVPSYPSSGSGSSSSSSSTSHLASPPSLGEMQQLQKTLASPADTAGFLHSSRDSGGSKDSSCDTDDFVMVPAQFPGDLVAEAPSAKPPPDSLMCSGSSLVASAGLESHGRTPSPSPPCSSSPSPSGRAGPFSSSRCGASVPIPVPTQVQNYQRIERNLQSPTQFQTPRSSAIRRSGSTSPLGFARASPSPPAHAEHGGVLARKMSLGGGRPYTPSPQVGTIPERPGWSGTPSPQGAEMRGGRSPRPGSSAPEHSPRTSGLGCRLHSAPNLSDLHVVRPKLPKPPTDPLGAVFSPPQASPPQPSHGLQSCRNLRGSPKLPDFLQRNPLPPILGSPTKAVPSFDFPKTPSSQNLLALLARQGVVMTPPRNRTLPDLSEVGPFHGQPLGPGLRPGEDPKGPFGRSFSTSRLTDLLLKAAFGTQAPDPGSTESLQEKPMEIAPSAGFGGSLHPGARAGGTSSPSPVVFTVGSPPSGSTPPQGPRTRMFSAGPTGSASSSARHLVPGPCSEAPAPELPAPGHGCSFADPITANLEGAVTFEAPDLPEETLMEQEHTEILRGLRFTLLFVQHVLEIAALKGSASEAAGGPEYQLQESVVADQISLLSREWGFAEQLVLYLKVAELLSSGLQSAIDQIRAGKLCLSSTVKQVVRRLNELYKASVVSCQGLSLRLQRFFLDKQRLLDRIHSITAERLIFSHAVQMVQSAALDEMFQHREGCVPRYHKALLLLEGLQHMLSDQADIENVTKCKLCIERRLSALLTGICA", "details": "for logFC: ULK1 (O75385) protein abundance, degrader vs DMSO, down; for logFC ULK1: ULK1 O75385"}, "[3]": {"molecular_target": "T2, protein kinases (human kinome) (Homo sapiens, UniProt O14976)", "T2 sequence (O14976 1-1311)": "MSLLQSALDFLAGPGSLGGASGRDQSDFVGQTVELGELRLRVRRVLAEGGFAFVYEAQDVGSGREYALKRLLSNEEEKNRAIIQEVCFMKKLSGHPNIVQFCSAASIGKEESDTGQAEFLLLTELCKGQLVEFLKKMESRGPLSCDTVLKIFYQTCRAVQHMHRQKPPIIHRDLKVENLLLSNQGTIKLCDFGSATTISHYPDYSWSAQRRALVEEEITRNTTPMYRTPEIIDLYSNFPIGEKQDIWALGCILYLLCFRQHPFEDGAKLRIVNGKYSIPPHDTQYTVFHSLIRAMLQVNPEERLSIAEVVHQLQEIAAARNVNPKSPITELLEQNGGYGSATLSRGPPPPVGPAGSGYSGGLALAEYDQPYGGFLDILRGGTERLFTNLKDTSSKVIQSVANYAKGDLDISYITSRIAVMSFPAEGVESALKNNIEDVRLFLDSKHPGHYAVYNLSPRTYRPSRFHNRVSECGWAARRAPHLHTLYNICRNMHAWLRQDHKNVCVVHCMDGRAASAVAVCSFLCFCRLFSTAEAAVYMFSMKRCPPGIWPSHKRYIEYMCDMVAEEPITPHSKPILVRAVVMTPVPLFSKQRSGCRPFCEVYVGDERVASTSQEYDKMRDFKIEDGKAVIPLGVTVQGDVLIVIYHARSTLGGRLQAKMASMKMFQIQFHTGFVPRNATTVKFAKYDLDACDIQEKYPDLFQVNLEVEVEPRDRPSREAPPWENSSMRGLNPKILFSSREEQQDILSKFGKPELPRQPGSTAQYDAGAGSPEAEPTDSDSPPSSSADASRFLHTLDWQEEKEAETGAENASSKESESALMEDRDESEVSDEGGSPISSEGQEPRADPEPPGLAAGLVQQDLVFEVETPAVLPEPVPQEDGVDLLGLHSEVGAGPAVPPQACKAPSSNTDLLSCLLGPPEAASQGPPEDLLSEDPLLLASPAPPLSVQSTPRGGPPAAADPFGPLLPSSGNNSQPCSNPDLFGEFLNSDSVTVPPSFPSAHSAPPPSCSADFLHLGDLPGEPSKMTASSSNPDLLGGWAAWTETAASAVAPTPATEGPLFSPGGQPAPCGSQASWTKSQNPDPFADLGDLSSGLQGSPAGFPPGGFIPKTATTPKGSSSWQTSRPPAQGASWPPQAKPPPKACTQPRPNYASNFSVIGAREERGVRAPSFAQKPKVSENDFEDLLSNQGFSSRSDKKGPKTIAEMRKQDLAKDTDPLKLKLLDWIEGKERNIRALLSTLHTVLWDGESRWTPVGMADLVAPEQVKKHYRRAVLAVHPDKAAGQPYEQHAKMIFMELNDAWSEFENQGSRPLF"}},
  "note": "Values joined by “and” are separate entries in the source; they are usually repeats but may differ in a detail not shown here. Equal values may be shown once. Read-outs that look alike come from different tables or passages of the source.",
  "data": [
    {"smiles": "Cc1ncsc1-c1ccc([C@H](C)NC(=O)[C@@H]2C[C@@H](O)CN2C(=O)[C@@H](NC(=O)CCOCCOCCN2CCN(c3ccc(Nc4ncc(Cl)c(Nc5ccccc5S(=O)(=O)C(C)C)n4)cc3)CC2)C(C)(C)C)cc1", "note": "[FMF.06.098.1]", "values": [
      {"measurement": "logFC of FER (P16591-1)", "setting": "[1]; Experiment wp108", "value": "−0.3577"},
      {"measurement": "logFC of FER (P16591-1)", "setting": "[1]; Experiment wp131", "value": "−0.4871"},
      {"measurement": "logFC of FER", "setting": "[1]; experiment wp108", "value": "−0.3577"},
      {"measurement": "logFC of FER", "setting": "[1]; experiment wp131", "value": "−0.4871"},
      {"measurement": "logFC", "setting": "[2]", "value": "−0.688 and −0.9629"},
      {"measurement": "logFC ULK1", "setting": "[2]; experiment wp108", "value": "−0.688"},
      {"measurement": "logFC ULK1", "setting": "[2]; experiment wp131", "value": "−0.9629"},
      {"measurement": "logFC of GAK (O14976)", "setting": "[3]; Experiment wp108, down", "value": "−0.4156"},
      {"measurement": "logFC of GAK (O14976)", "setting": "[3]; Experiment wp131, down", "value": "−0.3469"},
      {"measurement": "logFC GAK", "setting": "[3]; GAK (O14976), direction down, experiment wp108", "value": "−0.4156"},
      {"measurement": "logFC GAK", "setting": "[3]; GAK (O14976), direction down, experiment wp131", "value": "−0.3469"}
    ]},
    {"smiles": "CS(=O)(=O)Nc1cccc(-c2csc3cnc(Nc4ccc(N5CCN(CCCCCOc6cccc7c6C(=O)N(C6CCC(=O)NC6=O)C7=O)CC5)cc4)nc23)c1", "note": "(stereo not drawn) [DB0614, N-(3-(2-((4-(4-(5-((2-(2,6-Dioxopiperidin-3-yl)-1,3-dioxoisoindolin-4-yl)oxy)pentyl)piperazin-1-yl)phenyl)amino)thieno[3,2-d]pyrimidin-7-yl)phenyl)methanesulfonamide]", "values": [
      {"measurement": "logFC of FER (P16591-1)", "setting": "[1]; Experiment wp045", "value": "−0.7641"},
      {"measurement": "logFC of FER (P16591-1)", "setting": "[1]; Experiment wp117", "value": "−0.7725"},
      {"measurement": "logFC of FER", "setting": "[1]; experiment wp045", "value": "−0.7641"},
      {"measurement": "logFC of FER", "setting": "[1]; experiment wp117", "value": "−0.7725"},
      {"measurement": "logFC", "setting": "[2]", "value": "−0.869 and −1.105"},
      {"measurement": "logFC ULK1", "setting": "[2]; experiment wp045", "value": "−0.869"},
      {"measurement": "logFC ULK1", "setting": "[2]; experiment wp117", "value": "−1.105"},
      {"measurement": "logFC of GAK (O14976)", "setting": "[3]; Experiment wp045, down", "value": "−0.3305"},
      {"measurement": "logFC of GAK (O14976)", "setting": "[3]; Experiment wp117, down", "value": "−0.4196"},
      {"measurement": "logFC GAK", "setting": "[3]; GAK (O14976), direction down, experiment wp045", "value": "−0.3305"},
      {"measurement": "logFC GAK", "setting": "[3]; GAK (O14976), direction down, experiment wp117", "value": "−0.4196"}
    ]},
    {"smiles": "Cc1ccc(NC(=O)c2cccc(C(F)(F)F)c2)cc1N1Cc2cnc(Nc3ccc(N4CCN(CCCOc5cccc6c5C(=O)N(C5CCC(=O)NC5=O)C6=O)CC4)nc3)nc2N(C)C1=O", "note": "(stereo not drawn) [DB0662]", "values": [
      {"measurement": "logFC of FER (P16591-1)", "setting": "[1]; Experiment wp168", "value": "−1.481"},
      {"measurement": "logFC of FER", "setting": "[1]; experiment wp168", "value": "−1.481"},
      {"measurement": "logFC", "setting": "[2]", "value": "−0.3582"},
      {"measurement": "logFC ULK1", "setting": "[2]; experiment wp168", "value": "−0.3582"},
      {"measurement": "logFC GAK", "setting": "[3]; GAK (O14976), direction down, experiment wp168", "value": "−0.4373"},
      {"measurement": "logFC GAK", "setting": "[3]; GAK (O14976), experiment wp168, down", "value": "−0.4373"}
    ]},
    {"smiles": "CC(C)S(=O)(=O)c1ccccc1Nc1nc(Nc2ccc(N3CCN(CCOCCOCCNC(=O)CNc4cccc5c4C(=O)N(C4CCC(=O)NC4=O)C5=O)CC3)cc2)ncc1Cl", "note": "(stereo not drawn) [TL12.186]", "values": [
      {"measurement": "logFC of FER (P16591-1)", "setting": "[1]; Experiment wp016", "value": "−2.727"},
      {"measurement": "logFC of FER (P16591-1)", "setting": "[1]; Experiment wp131", "value": "−2.583"},
      {"measurement": "logFC of FER (P16591-1)", "setting": "[1]; Experiment wp137", "value": "−2.329"},
      {"measurement": "logFC of FER", "setting": "[1]; experiment wp016", "value": "−2.727"},
      {"measurement": "logFC of FER", "setting": "[1]; experiment wp131", "value": "−2.583"},
      {"measurement": "logFC of FER", "setting": "[1]; experiment wp137", "value": "−2.329"},
      {"measurement": "logFC ULK1", "setting": "[2]; experiment wp131", "value": "−3.01"},
      {"measurement": "logFC ULK1", "setting": "[2]; experiment wp137", "value": "−2.237"},
      {"measurement": "logFC of GAK (O14976)", "setting": "[3]; Experiment wp016, down", "value": "−0.3354"},
      {"measurement": "logFC GAK", "setting": "[3]; GAK (O14976), direction down, experiment wp016", "value": "−0.3354"}
    ]},
    {"smiles": "Cc1ncsc1-c1ccc([C@H](C)NC(=O)[C@@H]2C[C@@H](O)CN2C(=O)[C@@H](NC(=O)CCCCCN2CCc3cc(Nc4ncc(C5CC5)c(NCCCNC(=O)C5CCC5)n4)ccc3C2)C(C)(C)C)cc1", "note": "[BSJ.05.026]", "values": [
      {"measurement": "logFC", "setting": "[2]", "value": "−0.4424"},
      {"measurement": "logFC ULK1", "setting": "[2]; experiment wp195", "value": "−0.4424"},
      {"measurement": "logFC GAK", "setting": "[3]; GAK (O14976), experiment wp195, down", "value": "−0.5819"},
      {"measurement": "logFC GAK", "setting": "[3]; GAK, accession O14976, experiment wp195, direction of change down", "value": "−0.6819"}
    ]}
  ]
}
